Three compounds from US7135487B2, “Sulphonamide derivatives” (Eli Lilly and Company, priority 1997, dated 2006) can be followed below.

The structures appear in SMILES notation.

One data set has as its target T1, human GluR4B (Homo sapiens, UniProt P48058).
T1 construct: expressed in transfected cells; host or cells: HEK (HEK 293)
Nature of the data set: Fluo3-AM fluorescence test of glutamate-induced response in HEK cells, relative to 100 μM cyclothiazide. The format is cell-based. Conditions: human GluR4B receptor expressed in HEK 293 cells. Here is the method:
96 well plates containing confluent monolayers of HEK cells stably expressing human GluR4B (obtained as described in European Patent Application Publication Number EP-A1–583917) were prepared. The tissue culture medium in the wells was then discarded, and the wells were each washed once with 200 μl of 5NaCa buffer (glucose, 10 mM, sodium chloride, 138 mM, magnesium chloride, 1 mM, potassium chloride, 5 mM, calcium chloride, 5 mM, N-[2-hydroxyethyl]-piperazine-N-[2-ethanesulfonic acid], 10 mM, to pH 7.1 to 7.3). The plates were then incubated for 60 minutes in the dark with 20 μM Fluo3-AM dye (obtained from Molecular Probes Inc, Eugene, Oreg.) in 5 NaCa buffer in each well. After the incubation, each well was washed once with 100 μl 5NaCa buffer, 200 μl of 5NaCa buffer was added and the plates were incubated for 30 minutes. […]
Each test was then performed as follows. […] A first reading was then taken using a FLUOROSKAN II fluorimeter (Obtained from Labsystems, Needham Heights, Mass., USA, a Division of Life Sciences International Plc). […] A second reading was then taken using the fluorimeter. The plate was then left in the fluorimeter for 5 minutes, and a third reading was taken. 15 μl of 400 μM glutamate solution was then added to each well (final glutamate concentration 100 μM), and a fourth reading was taken immediately. Approximately three minutes later, a fifth reading was taken. […]

T1 sequence (P48058 21-902): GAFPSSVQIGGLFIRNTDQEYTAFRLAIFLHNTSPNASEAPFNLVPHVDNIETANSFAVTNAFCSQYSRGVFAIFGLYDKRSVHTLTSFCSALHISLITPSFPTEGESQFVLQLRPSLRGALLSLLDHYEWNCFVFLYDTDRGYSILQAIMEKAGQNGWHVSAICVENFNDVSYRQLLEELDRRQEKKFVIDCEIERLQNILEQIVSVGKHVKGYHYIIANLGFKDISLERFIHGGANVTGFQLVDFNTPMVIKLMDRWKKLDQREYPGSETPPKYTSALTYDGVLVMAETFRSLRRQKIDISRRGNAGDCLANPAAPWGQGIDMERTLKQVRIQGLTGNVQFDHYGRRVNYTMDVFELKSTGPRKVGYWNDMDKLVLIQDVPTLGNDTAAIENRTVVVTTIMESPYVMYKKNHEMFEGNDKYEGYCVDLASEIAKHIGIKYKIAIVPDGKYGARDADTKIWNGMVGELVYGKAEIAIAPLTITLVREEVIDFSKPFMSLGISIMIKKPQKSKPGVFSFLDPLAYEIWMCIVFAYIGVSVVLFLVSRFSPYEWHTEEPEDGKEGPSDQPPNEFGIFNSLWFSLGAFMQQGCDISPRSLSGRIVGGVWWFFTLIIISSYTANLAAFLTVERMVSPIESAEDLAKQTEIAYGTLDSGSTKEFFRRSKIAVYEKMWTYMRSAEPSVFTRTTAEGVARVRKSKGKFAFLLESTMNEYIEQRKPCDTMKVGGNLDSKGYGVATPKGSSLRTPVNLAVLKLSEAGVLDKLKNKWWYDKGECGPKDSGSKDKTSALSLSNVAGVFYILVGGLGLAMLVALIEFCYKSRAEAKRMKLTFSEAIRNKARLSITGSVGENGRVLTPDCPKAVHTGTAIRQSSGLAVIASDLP

Turning to `NS(=O)(=O)c1cc2c(cc1Cl)NC(C1CC3C=CC1C3)NS2(=O)=O` (stereo not drawn) [cyclothiazide], the “potentiation of agonist-induced excitability of human GluR4B receptor” value at human GluR4B was “potentiate”.

For the compound `CC(C)(C)c1ccc(C2(CNS(=O)(=O)C(F)(F)F)CC2)cc1`, the melting point lay within 82 to 84 °C.

Compound `CC(C)S(=O)(=O)NCC1(c2ccc(C(C)(C)C)cc2)CC1` displayed a melting point of 87 to 89.5 °C.

The melting point is the temperature, or range, at which the solid turns liquid.
